Experiment: In vivo biodistribution and pharmacokinetics in CD-1 mice
Conditions: i.v. 10 nmol
Protocol: Six weeks old CD-1 mice (male; 25-30 g) were purchased from Charles River Laboratories (Wilmington, Mass.). Mice were maintained under anesthesia by intraperitoneal injection with 100 mg/kg ketamine and 10 mg/kg xylazine (Webster Veterinary, Fort Devens, MA) for the entire duration of the experiment. The end of the tail was cut to enable blood extraction. Before injection, blood was then sampled in heparinized capillary tubes (Fisher Scientific, Pittsburgh, Pa.) as a reference and collected blood was stored in an ice box to prevent clotting. […] Mice were imaged using the in-house built real-time intraoperative MR imaging system. A 760 nm excitation laser source (4 mW/cm) was used with white light (400-650 nm; 40,000 lux). Color and MR fluorescence images were acquired simultaneously with customized software at rates of up to 15 Hz over a field of view with 15 cm in diameter. After 4 h post-injection, mice were sacrificed to image organs and collected urine from the bladder. At least 3 mice were analyzed for each sample.
The collected blood samples were centrifuged for 20 min at 3000 rpm in order to separate serum and blood plasma, and supernatants were then filled into capillary microtubes. Fluorescence intensities of the microtubes were measured using the in-house built MR imaging system. […]

Signal-to-background ratio (SBR) of each organ against muscle (4 h, resected organs): highest SBR in the kidneys
SMILES: CC1(C)C(/C=C/C2=C(c3ccc(CCC(=O)O)cc3)C(=C/C=C3/N(CCC[N+](C)(C)C)c4ccc(S(=O)(=O)O)cc4C3(C)C)/CCC2)=[N+](CCC[N+](C)(C)C)c2ccc(S(=O)(=O)O)cc21 [ZW800-1C]
Biodistribution by NIR fluorescence imaging (4 h post-injection): excretes to the bladder 4 h after injection
